The record followed here is US10428083B2, “Heterocyclylmethyl-thienouracile as antagonists of the adenosine-A2B-receptor” (BAYER PHARMA AKTIENGESELLSCHAFT, priority 2015, dated 2019).

The test addresses human adenosine A2b receptor (Homo sapiens (Human), UniProt P29275). The experiment in a line: Cellular in vitro reporter gene test for A2b receptor activity (CHO-K1, CRE-luciferase, NECA stimulation). It is filed as cell-based. In a few lines: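 CHO-K1 cells with CRE-driven luciferase; antagonists co-incubated with NECA at its EC50, determined in a pre-experiment on each test day. Luciferase read by luminescence 3 h after NECA addition.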

[1] abbreviates: recombinant CHO-K1 cell line, CRE-luciferase reporter, antagonism of EC50 concentration of NECA, in some cases means of several determinations, rounded to two significant figures, read-out: A2b receptor IC50.

As usually defined, the pIC50 is the negative decadic logarithm of the IC50, by convention in mol/L.

Molecules are shown by their SMILES. pIC50: −log10 of the molar value. Like-named read-outs stand apart in the source and are kept apart here.

Sequence of human adenosine A2b receptor (P29275 whole entry): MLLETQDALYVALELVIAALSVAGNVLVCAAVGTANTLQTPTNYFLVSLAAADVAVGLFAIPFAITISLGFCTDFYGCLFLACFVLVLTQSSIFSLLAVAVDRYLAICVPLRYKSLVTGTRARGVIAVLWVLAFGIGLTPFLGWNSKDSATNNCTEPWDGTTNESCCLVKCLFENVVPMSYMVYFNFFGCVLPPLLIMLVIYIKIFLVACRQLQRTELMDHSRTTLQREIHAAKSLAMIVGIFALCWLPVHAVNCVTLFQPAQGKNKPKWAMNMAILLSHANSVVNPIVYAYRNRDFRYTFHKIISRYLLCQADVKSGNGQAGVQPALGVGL

As to `COCCn1c(=O)n(C(C)C(F)(F)F)c(=O)c2c(C)c(Cn3nc[nH]c3=O)sc21` (racemic) [Example 438, 1-(2-Methoxyethyl)-5-methyl-6-[(5-oxo-4,5-dihydro-1H-1,2,4-triazol-1-yl)methyl]-3-(1,1,1-trifluoropropan-2-yl)thieno[2,3-d]pyrimidine-2,4(1H,3H)-dione], the pIC50 is 6.82.
Turning to `CCn1c(=O)c2c(C)c(CN3CCNC(=O)C3=O)sc2n(CCCOC)c1=O` [Example 396, 6-[(2,3-Dioxopiperazin-1-yl)methyl]-3-ethyl-1-(3-methoxypropyl)-5-methylthieno[2,3-d]pyrimidine-2,4(1H,3H)-dione], the pIC50 under setting [1] was 7.03.
With `CCn1c(=O)c2c(C)c(CN3CCNC3=O)sc2n(CC(F)F)c1=O` [Example 177, 1-(2,2-Difluoroethyl)-3-ethyl-5-methyl-6-[(2-oxoimidazolidin-1-yl)methyl]thieno[2,3-d]pyrimidine-2,4(1H,3H)-dione], under setting [1], the pIC50 is 7.82.
Take `CCOCCn1c(=O)c2c(C)c(CN3CCNC3=S)sc2n(CCCF)c1=O` [Example 405, 3-(2-Ethoxyethyl)-1-(3-fluoropropyl)-5-methyl-6-[(2-thioxoimidazolidin-1-yl)methyl]thieno[2,3-d]pyrimidine-2,4(1H,3H)-dione]: the pIC50 under setting [1] is 7.52.
As for `COCCn1c(=O)c2c(C)c(CN3CCNC3=NC(=O)OC)sc2n(CC2CCO2)c1=O` (racemic) [Example 387, Methyl [1-{[3-(2-methoxyethyl)-5-methyl-1-(oxetan-2-ylmethyl)-2,4-dioxo-1,2,3,4-tetrahydrothieno[2,3-d]pyrimidin-6-yl]methyl}imidazolidin-2-ylidene]carbamate], the pIC50 under setting [1] is 7.02.
Same read-out and setting: under `CCn1c(=O)c2c(C)c(CN3CCNC3=NC(=O)OC)sc2n(CCC(F)(F)F)c1=O` [Example 370, Methyl [1-{[3-ethyl-5-methyl-2,4-dioxo-1-(3,3,3-trifluoropropyl)-1,2,3,4-tetrahydrothieno[2,3-d]pyrimidin-6-yl]methyl}imidazolidin-2-ylidene]carbamate] stands 8.70; under `CCn1c(=O)c2c(C)c(Cn3c(C)c[nH]c3=O)sc2n(CCOC)c1=O` [Example 252], 8.39.
`CCOCCn1c(=O)c2c(C)c(CN3CCNC3=S)sc2n(CCOC)c1=O` [Example 302, 3-(2-Ethoxyethyl)-1-(2-methoxyethyl)-5-methyl-6-[(2-thioxoimidazolidin-1-yl)methyl]thieno[2,3-d]pyrimidine-2,4(1H,3H)-dione]: under setting [1], the pIC50 was 7.85.
As for `COCCn1c(=O)n(CCc2ccccc2)c(=O)c2c(C(F)(F)F)c(CN3CCCS3(=O)=O)sc21` [Example 18, 6-[(1,1-Dioxido-1,2-thiazolidin-2-yl)methyl]-1-(2-methoxyethyl)-3-(2-phenylethyl)-5-(trifluoromethyl)thieno[2,3-d]pyrimidine-2,4(1H,3H)-dione], the pIC50 under setting [1] was 7.85.
With `CCn1c(=O)c2c(C)c(CN3CCNC3=O)sc2n(CC2CCCO2)c1=O` (single isomer, unassigned; enantiomer 2) [Example 70, 3-Ethyl-5-methyl-6-[(2-oxoimidazolidin-1-yl)methyl]-1-(tetrahydrofuran-2-ylmethyl)thieno[2,3-d]pyrimidine-2,4(1H,3H)-dione (Enantiomer 2)], the pIC50 under setting [1] is 7.68.
Same read-out and setting: for `Cc1c(CN2CCNC2=O)sc2c1c(=O)n(CC(F)(F)F)c(=O)n2C` [Example 213, 1,5-Dimethyl-6-[(2-oxoimidazolidin-1-yl)methyl]-3-(2,2,2-trifluoroethyl)thieno[2,3-d]pyrimidine-2,4(1H,3H)-dione] the value was 8.12; for `CCn1c(=O)c2c(C)c(CN3CCNC3=O)sc2n(CC2CCCCO2)c1=O` (racemic) [Example 71, 3-Ethyl-5-methyl-6-[(2-oxoimidazolidin-1-yl)methyl]-1-(tetrahydro-2H-pyran-2-ylmethyl)thieno[2,3-d]pyrimidine-2,4(1H,3H)-dione (racemate)], 7.15; for `COCCn1c(=O)n(CC(C)C)c(=O)c2c(C)c(CN3CCNC3=O)sc21` [Example 89, 3-Isobutyl-1-(2-methoxyethyl)-5-methyl-6-[(2-oxoimidazolidin-1-yl)methyl]thieno[2,3-d]pyrimidine-2,4(1H,3H)-dione], 8.06.
Same read-out and setting: for `Cc1c(CN2CCNC2=O)sc2c1c(=O)n(C(C)C)c(=O)n2CC1CCO1` (single isomer, unassigned) [Example 185, 3-Isopropyl-5-methyl-1-(oxetan-2-ylmethyl)-6-[(2-oxoimidazolidin-1-yl)methyl]thieno[2,3-d]pyrimidine-2,4(1H,3H)-dione] the value was 7.22; for `Cc1c(Cn2[nH]ccc2=O)sc2c1c(=O)n(CC(F)(F)F)c(=O)n2CCC(F)(F)F` [Example 282, 5-Methyl-6-[(5-oxo-2,5-dihydro-1H-pyrazol-1-yl)methyl]-3-(2,2,2-trifluoroethyl)-1-(3,3,3-trifluoropropyl)thieno[2,3-d]pyrimidine-2,4(1H,3H)-dione], 7.52.
The same measure, in the same setting: under `CCn1c(=O)c2c(C)c(Cn3cc[nH]c3=O)sc2n(CCC(F)(F)F)c1=O` [Example 241, 3-Ethyl-5-methyl-6-[(2-oxo-2,3-dihydro-1H-imidazol-1-yl)methyl]-1-(3,3,3-trifluoropropyl)thieno[2,3-d]pyrimidine-2,4(1H,3H)-dione] stands 8.92; under `CCn1c(=O)c2c(C)c(CN3CC(N)CC3=O)sc2n(CCC(F)(F)F)c1=O` (racemic) [Example 9, 6-[(4-Amino-2-oxopyrrolidin-1-yl)methyl]-3-ethyl-5-methyl-1-(3,3,3-trifluoropropyl)thieno[2,3-d]pyrimidine-2,4(1H,3H)-dione (racemate)], 7.01; under `CCn1c(=O)c2c(C)c(CN3CCNC3=S)sc2n(CCCCF)c1=O` [Example 30, 3-Ethyl-1-(4-fluorobutyl)-5-methyl-6-[(2-thioxoimidazolidin-1-yl)methyl]thieno[2,3-d]pyrimidine-2,4(1H,3H)-dione], 8.30.
`CCn1c(=O)c2c(C)c(CN3CCNC3=NC#N)sc2n(CC2CCCO2)c1=O` (single isomer, unassigned) [Example 261, [1-{[3-Ethyl-5-methyl-2,4-dioxo-1-(tetrahydrofuran-2-ylmethyl)-1,2,3,4-tetrahydrothieno[2,3-d]pyrimidin-6-yl]methyl}imidazolidin-2-ylidene]cyanamide]: the pIC50 under setting [1] was 8.00.
Same read-out and setting: for `Cc1c(Cn2nc[nH]c2=O)sc2c1c(=O)n(C(C)C)c(=O)n2CC1CCCO1` (single isomer, unassigned) [Example 426, 3-Isopropyl-5-methyl-6-[(5-oxo-4,5-dihydro-1H-1,2,4-triazol-1-yl)methyl]-1-(tetrahydrofuran-2-ylmethyl)thieno[2,3-d]pyrimidine-2,4(1H,3H)-dione] the value was 6.57; for `COCCn1c(=O)n(CC2CC2)c(=O)c2c(C)c(CN3CCNC3=O)sc21` [Example 92], 8.01; for `Cc1c(CN2CCNC2=S)sc2c1c(=O)n(CC(F)F)c(=O)n2CC1COC1` [Example 165, 3-(2,2-Difluoroethyl)-5-methyl-1-(oxetan-3-ylmethyl)-6-[(2-thioxoimidazolidin-1-yl)methyl]thieno[2,3-d]pyrimidine-2,4(1H,3H)-dione], 8.19.
